Read-outs that look alike come from different tables or passages of the source.
Molecular target: T1, STAT6 (Homo sapiens, UniProt P42226)
T1 construct: endogenous in cells; host or cells: MOLM-16, KU-812, SKNO1, MB231, L1236
T1 sequence (P42226 1-847): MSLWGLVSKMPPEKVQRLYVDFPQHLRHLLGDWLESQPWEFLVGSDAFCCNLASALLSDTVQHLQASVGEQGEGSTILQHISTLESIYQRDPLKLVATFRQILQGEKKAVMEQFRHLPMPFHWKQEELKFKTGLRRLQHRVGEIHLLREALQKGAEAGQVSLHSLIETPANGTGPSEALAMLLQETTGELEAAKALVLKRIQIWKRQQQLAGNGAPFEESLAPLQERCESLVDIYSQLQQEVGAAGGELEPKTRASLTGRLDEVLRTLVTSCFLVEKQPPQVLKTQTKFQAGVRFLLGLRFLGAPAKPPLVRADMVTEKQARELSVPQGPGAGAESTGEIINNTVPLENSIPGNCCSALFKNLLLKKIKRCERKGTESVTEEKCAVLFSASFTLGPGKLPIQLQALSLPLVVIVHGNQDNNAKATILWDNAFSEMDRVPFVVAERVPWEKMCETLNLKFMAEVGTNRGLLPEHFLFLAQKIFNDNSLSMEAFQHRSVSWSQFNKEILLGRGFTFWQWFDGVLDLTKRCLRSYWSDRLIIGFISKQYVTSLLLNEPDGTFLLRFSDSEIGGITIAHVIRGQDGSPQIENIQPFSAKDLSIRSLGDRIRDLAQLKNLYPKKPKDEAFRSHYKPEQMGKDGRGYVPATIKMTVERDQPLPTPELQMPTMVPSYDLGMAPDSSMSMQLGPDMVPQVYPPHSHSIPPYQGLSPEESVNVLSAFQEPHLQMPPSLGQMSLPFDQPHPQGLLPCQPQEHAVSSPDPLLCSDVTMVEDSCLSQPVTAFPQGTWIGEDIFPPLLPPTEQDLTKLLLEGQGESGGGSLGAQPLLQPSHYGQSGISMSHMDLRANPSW
Experiment: Immunoblotting (Western blot) analysis of STAT6 degradation efficiency of degraders in treated cells
Format: cell-based
Description: Evaluation of the degradation efficiency of degraders may be accomplished by immunoblotting analysis. The representative general protocol is the following:
Cells are maintained in the appropriate culture medium with 10% FBS at 37° C. and an atmosphere of 5% CO2. Cell lines are used within three months of thawing fresh vials. Cells are lysed 1× Cell Lysis Buffer (Cell Signaling Technology, #9803), resolved by SDS-PAGE NuPAGE gel (Thermo Fisher Scientific), and transferred to a PVDF membrane (Millipore). Membranes are blocked using Odyssey TBS Blocker Buffer (LI-COR). IRDye 680RD and 800CW Dye-labeled secondary antibodies (LI-COR) are used. The washed membranes are scanned using Odyssey CLx imager (LI-COR). The intensity of Western blot signaling is quantitated using the Odyssey software. Primary antibodies used are: STAT5 Rabbit mAb (Cell Signaling Technology, #94205), STAT6 Rabbit mAb (Cell Signaling Technology, #5397) and GAPDH mouse monoclonal antibody (Santa Cruz Biotechnology, sc-47724).
To evaluate the degradation efficiency of degraders, immunoblotting analysis was performed. The general protocol is the following.
About 1 million cells for each data point were treated with compounds at indicated concentrations and durations. Untreated and treated cells in cell culture medium were transferred into tubes, followed by centrifugation at 3,000 rpm and 4° C. for 6 min Supernatants were removed from tubes and radioimmunoprecipitation assay (RIPA) lysis buffer supplemented with 1% protease inhibitor cocktail (Fisher Scientific cat. PI87786) and phosphatase inhibitor (Roche cat. 04906837001) were added to tubes containing the remaining cell pellets. The tubes were then left on ice for 30 min and placed in a −80° C. freezer. Subsequently they were thawed in 37° C. water, then centrifuged at 14,000 rpm for 15 min and the cell lysates transferred to new tubes. The concentration of total proteins in each tube was calculated using the Pierce BCA protein Assay kit (cat. 23225). Based on the calculated protein concentration, cell lysates containing approximately the same amount of proteins were transferred to new tubes, then distilled water and 4× Protein Sample Loading Buffer for Western Blots (LI-COR cat. 928-40004) supplemented with 20% of mercaptoethanol (Sigma Aldrich cat. M6250) were added on ice. The cell lysates were then reduced and denatured at 95° C. for 5 min. From the tubes containing cell lysates an equal amount of protein samples (20-40 μg) was loaded into precast 8%, 10%, 4%-12%, or 4%-20% Tris-glycine gels (Novex) filled with Tris-glycine SDS running buffer. After the proteins were resolved, they were transferred onto Immobile-FL PVDF Membrane (Millipore Sigma cat. IPFL00010), using Mini Trans-Blot Electrophoretic Transfer Cell (Bio-Rad 1703930). The membranes were blocked with Intercept Blocking Buffer (LI-COR cat. 927-70001) in LI-COR Western Blot boxes for 1 h at rt. The membranes were washed with 1× Tris-buffered saline-Tween-20 (TBST, 1× solution was made from 20×TBST solution, ThermoFisher Scientific cat. 28360) for 5 min 4 times. The membranes were incubated overnight at 4° C. in Intercept Blocking Buffer supplemented with primary antibodies (normally antibody:buffer 1:1000) and Tween-20. The membranes were washed with TBST for 5 min 4 times and were incubated with Intercept Blocking Buffer supplemented with IRDye 800CE Secondary Antibodies, IRDye 680RD Secondary Antibodies (LI-COR biosciences), Tween-20, and 10% SDS solution, for 1 h at rt. The membranes were then washed with TBST for 5 min 4 times and rinsed with deionized water before drying and scanning with Odyssey Dlx Amazing System (LI-COR). The immunoblots were finally quantified by the software.

[1] = MOLM-16 cells, class symbols, read-out: DC50 S6 MOLM-16
[2] = L1236 cells, read-out: DC50 S6 L1236

Row | SMILES | DC50 [1] | DC50 [2]
1 | Cc1ncsc1-c1ccc([C@H](CC(=O)NCCCCCCCCCC(=O)N[C@H]2C[C@@H](C(=O)N3CCO[C@H](c4ccccc4)C3)N(C(=O)[C@@H](NC(=O)c3cc4cc(C(F)(F)P(=O)(O)O)ccc4s3)C(C)(C)C)C2)NC(=O)[C@@H]2C[C@@H](O)CN2C(=O)[C@@H](NC(=O)C2(F)CC2)C(C)(C)C)cc1 [Compound 572, (difluoro(2-(((S)-1-((2S,4S)-4-(10-((S)-3-((2S,4R)-1-((S)-2-(1-fluorocyclopropane-1-carboxamido)-3,3-dimethylbutanoyl)-4-hydroxypyrrolidine-2-carboxamido)-3-(4-(4-methylthiazol-5-yl)phenyl)propanamido)decanamido)-2-((R)-2-phenylmorpholine-4-carbonyl)pyrrolidin-1-yl)-3,3-dimethyl-1-oxobutan-2-yl)carbamoyl)benzo[b]thiophen-5-yl)methyl)phosphonic acid] | > 10 µM | –
2 | Cc1ncsc1-c1ccc([C@H](C)NC(=O)[C@@H]2C[C@@H](O)CN2C(=O)[C@@H](NC(=O)CCCCCCCCCNC(=O)CO[C@H]2C[C@@H](C(=O)N3CCO[C@H](c4ccccc4)C3)N(C(=O)[C@@H](NC(=O)c3cc4cc(C(F)(F)P(=O)(O)O)ccc4s3)C(C)(C)C)C2)C(C)(C)C)cc1 [Compound 433, (difluoro(2-(((S)-1-((2S,4S)-4-(2-((10-(((S)-1-((2S,4R)-4-hydroxy-2-(((S)-1-(4-(4-methylthiazol-5-yl)phenyl)ethyl)carbamoyl)pyrrolidin-1-yl)-3,3-dimethyl-1-oxobutan-2-yl)amino)-10-oxodecyl)amino)-2-oxoethoxy)-2-((R)-2-phenylmorpholine-4-carbonyl)pyrrolidin-1-yl)-3,3-dimethyl-1-oxobutan-2-yl)carbamoyl)benzo[b]thiophen-5-yl)methyl)phosphonic acid] | > 10 µM | > 10 µM
3 | Cc1ncsc1-c1ccc([C@H](C)NC(=O)[C@@H]2C[C@@H](O)CN2C(=O)[C@@H](NC(=O)CCNC(=O)COc2ccc3c(c2)CN(C(=O)[C@@H](NC(=O)c2cc4cc(C(F)(F)P(=O)(O)O)ccc4s2)C(C)(C)C)[C@H](C(=O)N2CCO[C@H](c4ccccc4)C2)C3)C(C)(C)C)cc1 [Compound 462, (difluoro(2-(((S)-1-((S)-7-(2-((3-(((S)-1-((2S,4R)-4-hydroxy-2-(((S)-1-(4-(4-methylthiazol-5-yl)phenyl)ethyl)carbamoyl)pyrrolidin-1-yl)-3,3-dimethyl-1-oxobutan-2-yl)amino)-3-oxopropyl)amino)-2-oxoethoxy)-3-((R)-2-phenylmorpholine-4-carbonyl)-3,4-dihydroisoquinolin-2(1H)-yl)-3,3-dimethyl-1-oxobutan-2-yl)carbamoyl)benzo[b]thiophen-5-yl)methyl)phosphonic acid] | > 10 µM | > 10 µM
4 | CC(C)(C)[C@H](NC(=O)c1cc2cc(C(F)(F)P(=O)(O)O)ccc2s1)C(=O)N1Cc2cc(OCC(=O)NCCCCCC#Cc3ccc4c(c3)C(=O)N(C3CCC(=O)NC3=O)C4=O)ccc2C[C@H]1C(=O)N1CCO[C@H](c2ccccc2)C1 (stereo partly drawn) [Compound 544, ((2-(((2S)-1-((3S)-7-(2-((7-(2-(2,6-dioxopiperidin-3-yl)-1,3-dioxoisoindolin-5-yl)hept-6-yn-1-yl)amino)-2-oxoethoxy)-3-((R)-2-phenylmorpholine-4-carbonyl)-3,4-dihydroisoquinolin-2(1H)-yl)-3,3-dimethyl-1-oxobutan-2-yl)carbamoyl)benzo[b]thiophen-5-yl)difluoromethyl)phosphonic acid] | > 10 µM | –
5 | O=C1CCC(N2Cc3cc(C#CCCCCCC(=O)N4CC[C@H]5CC[C@@H](C(=O)N6CC[C@@H](c7ccccc7)C6)N5C(=O)[C@@H](NC(=O)c5cc6cc(C(F)(F)P(=O)(O)O)ccc6s5)C4)ccc3C2=O)C(=O)N1 (stereo partly drawn) [Compound 574, ((2-(((5S,8S,10aR)-3-(8-(2-(2,6-dioxopiperidin-3-yl)-1-oxoisoindolin-5-yl)oct-7-ynoyl)-6-oxo-8-((S)-3-phenylpyrrolidine-1-carbonyl)decahydropyrrolo[1,2-a][1,5]diazocin-5-yl)carbamoyl)benzo[b]thiophen-5-yl)difluoromethyl)phosphonic acid] | > 10 µM | > 10 µM
6 | CC(C)(C)[C@H](NC(=O)c1cc2cc(C(F)(F)P(=O)(O)O)ccc2s1)C(=O)N1CCN(C(=O)CC(=O)NCCCCC#Cc2ccc3c(c2)C(=O)N(C2CCC(=O)NC2=O)C3=O)C[C@H]1C(=O)N1CCC[C@H](c2ccccc2)C1 (stereo partly drawn) [Compound 528, ((2-(((2S)-1-((2S)-4-(3-((6-(2-(2,6-dioxopiperidin-3-yl)-1,3-dioxoisoindolin-5-yl)hex-5-yn-1-yl)amino)-3-oxopropanoyl)-2-((R)-3-phenylpiperidine-1-carbonyl)piperazin-1-yl)-3,3-dimethyl-1-oxobutan-2-yl)carbamoyl)benzo[b]thiophen-5-yl)difluoromethyl)phosphonic acid] | > 10 µM | –
7 | Cc1ncsc1-c1ccc([C@H](C)NC(=O)[C@@H]2C[C@@H](O)CN2C(=O)[C@@H](NC(=O)CCCNC(=O)COc2ccc3c(c2)CN(C(=O)[C@@H](NC(=O)c2cc4cc(C(F)(F)P(=O)(O)O)ccc4s2)C(C)(C)C)[C@H](C(=O)N2CCC[C@H](c4ccccc4)C2)C3)C(C)(C)C)cc1 [Compound 472, (difluoro(2-(((S)-1-((S)-7-(2-((4-(((S)-1-((2S,4R)-4-hydroxy-2-(((S)-1-(4-(4-methylthiazol-5-yl)phenyl)ethyl)carbamoyl)pyrrolidin-1-yl)-3,3-dimethyl-1-oxobutan-2-yl)amino)-4-oxobutyl)amino)-2-oxoethoxy)-3-((R)-3-phenylpiperidine-1-carbonyl)-3,4-dihydroisoquinolin-2(1H)-yl)-3,3-dimethyl-1-oxobutan-2-yl)carbamoyl)benzo[b]thiophen-5-yl)methyl)phosphonic acid] | > 10 µM | –

Source: patent publication US20230295197A1, “STAT5 and STAT6 Degraders and Uses Thereof” (REGENTS OF THE UNIVERSITY OF MICHICAN, priority 2022, published 2023)
